Source: patent US10836732B2, “Compounds for combating arthropods” (priority 2013, dated 2020)

How the values were obtained:
[1] = system: Tetranychus urticae; assay: Tetranychus urticae - spray test, OP-resistant; format: in vivo; settings: bean leaf discs, after 6 days
Procedure: (§1) Solvent: 78.0 parts by weight of acetone
(§2) • 1.5 parts by weight of dimethylformamide Emulsifier: alkylaryl polyglycol ether
(§3) To produce an appropriate active ingredient formulation, 1 part by weight of active ingredient is dissolved using the specified parts by weight of solvent and made up with water containing an emulsifier concentration of 1000 ppm until the desired concentration is attained. To produce further test concentrations, the preparation is diluted with emulsifier-containing water.
Discs of bean leaves (Phaseolus vulgaris) infested by all stages of the greenhouse red spider mite (Tetranychus urticae) are sprayed with an active ingredient formulation of the desired concentration.
After 6 days, efficacy in % is determined 100% means that all the spider mites have been killed; 0% means that none of the spider mites have been killed.

[2] = system: Ctenocephalides felis; assay: Ctenocephalides felis - in vitro contact tests with adult cat fleas; format: in vivo; settings: 5 μg/cm^2, adult cat fleas, after 48 h
Procedure: (§4) For the coating of the test tubes, 9 mg of active ingredient are first dissolved in 1 ml of acetone p.a. and then diluted to the desired concentration with acetone p.a. 250 μl of the solution are distributed homogeneously on the inner walls and base of a 25 ml test tube by turning and rocking on an orbital shaker (rocking rotation at 30 rpm for 2 h). With 900 ppm active ingredient solution and internal surface area 44.7 cm^2, given homogeneous distribution, an area-based dose of 5 μg/cm^2 is achieved.
After the solvent has evaporated off, the tubes are populated with 5-10 adult cat fleas (Ctenocephalides felis), sealed with a perforated plastic lid and incubated in a horizontal position at room temperature and ambient humidity. After 48 h, efficacy is determined. To this end, the test tubes are stood upright and the fleas are knocked to the base of the tube. Fleas which remain motionless at the base or move in an uncoordinated manner are considered to be dead or moribund.
100% efficacy means that all the fleas were dead or moribund. 0% efficacy means that no fleas were harmed.

[3] = system: Amblyomma hebraeum; assay: Amblyomma hebaraeum - test (tick nymphs, immersion); format: in vivo; settings: 100 ppm, tick nymphs immersed one minute, after 42 days
Procedure: (§5) Solvent: dimethyl sulphoxide
(§6) To produce an appropriate active ingredient formulation, 10 mg of active ingredient are mixed with 0.5 ml of dimethyl sulphoxide, and the concentrate is diluted with water to the desired concentration.
Tick nymphs (Amblyomma hebraeum) are placed into perforated plastic beakers and immersed in the desired concentration for one minute. The ticks are transferred on filter paper into a Petri dish and stored in a climate-controlled cabinet.
After 42 days, the kill in % is determined 100% means that all of the ticks have been killed; 0% means that none of the ticks have been killed.

[4] = system: Ctenocephalides felis; assay: Ctenocephalides felis - oral test; format: in vivo; settings: 100 ppm in citrated cattle blood, adult cat fleas, after 2 days
Procedure: as §5
For the purpose of producing an appropriate active ingredient formulation, 10 mg of active ingredient are mixed with 0.5 ml of dimethyl sulphoxide. Dilution with citrated cattle blood gives the desired concentration.
About 20 unfed adult cat fleas (Ctenocephalides felis) are placed into a chamber which is closed at the top and bottom with gauze. A metal cylinder whose bottom end is closed with parafilm is placed onto the chamber. The cylinder contains the blood/active ingredient preparation, which can be imbibed by the fleas through the parafilm membrane.
After 2 days, the kill in % is determined 100% means that all of the fleas have been killed; 0% means that none of the fleas have been killed.

[5] = system: Rhipicephalus sanguineus; assay: Rhipicephalus sanguineus - in vitro contact tests with adult brown dog ticks; format: in vivo; settings: 5 μg/cm^2, adult dog ticks, after 48 h
Procedure: as §4, with “surface” for “surface area”
After the solvent has evaporated off, the tubes are populated with 5-10 adult dog ticks (Rhipicephalus sanguineus), sealed with a perforated plastic lid and incubated in a horizontal position in the dark at room temperature and ambient humidity. After 48 h, efficacy is determined To this end, the ticks are knocked to the floor of the tube and incubated on a hotplate at 45-50° C. for not more than 5 min Ticks which remain motionless on the floor or move in such an uncoordinated manner that they are unable to deliberately avoid the heat by climbing upwards are considered to be dead or moribund.
An efficacy of 100% means that all the ticks were dead or moribund. 0% efficacy means that none of the ticks had been harmed.

[6] = logP by HPLC on reversed-phase column (C18), EEC Directive 79/831 Annex V.A8; format: physicochemical
[7] = system: Phaedon cochleariae; assay: Phaedon cochleariae - spray test; format: in vivo; settings: Chinese cabbage leaf discs, after 7 days
Procedure: as §1, §2, §3
Discs of Chinese cabbage leaves (Brassica pekinensis) are sprayed with an active ingredient formulation of the desired concentration and, after drying, populated with larvae of the mustard beetle (Phaedon cochleariae).
After 7 days, efficacy in % is determined 100% means that all the beetle larvae have been killed; 0% means that no beetle larvae have been killed.

[8] = system: Musca domestica; assay: Musca domestica - test; format: in vivo; settings: 100 ppm, adult houseflies, after 2 days
Procedure: as §5, §6
Vessels containing a sponge treated with sugar solution and the active ingredient formulation of the desired concentration are populated with 10 adult houseflies (Musca domestica).
After 2 days, the kill in % is determined 100% means that all of the flies have been killed; 0% means that none of the flies have been killed.

[9] = system: Spodoptera frugiperda; assay: Spodoptera frugiperda - spray test; format: in vivo; settings: maize leaf discs, after 7 days
Procedure: as §1, §2, §3
Leaf discs of maize (Zea mays) are sprayed with an active ingredient formulation of the desired concentration and, after drying, populated with caterpillars of the armyworm (Spodoptera frugiperda).
After 7 days, efficacy in % is determined. 100% means that all the caterpillars have been killed; 0% means that no caterpillars have been killed.

[10] = system: Lucilia cuprina; assay: Lucilia cuprina - test; format: in vivo; settings: 100 ppm, L1 larvae, after 2 days
Procedure: as §5, §6
About 20 L1 larvae of the Australian sheep blowfly (Lucilia cuprina) are transferred into a test vessel containing minced horsemeat and the active ingredient preparation of the desired concentration.
After 2 days, the kill in % is determined 100% means that all the larvae have been killed; 0% means that none of the larvae have been killed.

[11] = system: Boophilus microplus; assay: Boophilus microplus - injection test; format: in vivo; settings: 20 μg/animal, injected into engorged adult female cattle ticks, after 7 days
Procedure: as §5
To produce an appropriate active ingredient formulation, 10 mg of active ingredient are mixed with 0.5 ml of solvent and the concentrate is diluted with solvent to the desired concentration.
1 μl of the active ingredient solution is injected into the abdomen of 5 engorged adult female cattle ticks (Boophilus microplus). The animals are transferred into dishes and kept in a climate-controlled room.
(§7) Efficacy is assessed after 7 days by laying of fertile eggs. Eggs which are not visibly fertile are stored in a climate-controlled cabinet until the larvae hatch after about 42 days. An efficacy of 100% means that none of the ticks has laid any fertile eggs; 0% means that all the eggs are fertile.

[12] = system: Boophilus microplus Parkhurst strain, SP-resistant; assay: Boophilus microplus - dip test; format: in vivo; settings: 100 ppm, adult engorged female cattle ticks, after 7 days
Procedure: Test animals: cattle ticks (Boophilus microplus) Parkhurst strain, SP-resistant
as §5
10 mg of active ingredient are dissolved in 0.5 ml of dimethyl sulphoxide. For the purpose of producing a suitable formulation, the active ingredient solution is diluted with water to the concentration desired in each case.
This active ingredient formulation is pipetted into tubes. 8-10 adult engorged female cattle ticks (Boophilus microplus) are transferred into a further tube with holes. The tube is immersed into the active ingredient formulation, and all the ticks are completely wetted. After the liquid has run out, the ticks are transferred on filter discs into plastic dishes and stored in a climate-controlled room.
as §7

[13] = system: Anopheles funestus strain FUMOZ-R; assay: Anopheles test (ANPHFU surface treatment); format: in vivo; settings: 20 mg/m^2, glazed tile, exposure 30 minutes, 24 hours after contact
Procedure: Solvent: acetone+2000 ppm rapeseed oil methyl ester (RME)
To produce an appropriate active ingredient formulation, the active ingredient is dissolved in the solvent (2 mg/ml). The active ingredient formulation is pipetted onto a glazed tile and, after it has dried off, adult mosquitoes of the species Anopheles funestus strain FUMOZ-R (Hunt et al., Med Vet Entomol. 2005 September; 19(3):271-5) are placed onto the treated tile. The exposure time is 30 minutes.
24 hours after contact with the treated surface, mortality in % is determined 100% means that all mosquitoes have been killed; 0% means that none of the mosquitoes have been killed.

[14] = system: Myzus persicae; assay: Myzus persicae - spray test; format: in vivo; settings: 500 g/ha, Chinese cabbage leaf discs, after 6 days
Procedure: Solvent: 78 parts by weight of acetone
as §2, §3
Discs of Chinese cabbage leaves (Brassica pekinensis) infested by all stages of the green peach aphid (Myzus persicae) are sprayed with an active ingredient formulation of the desired concentration.
After 6 days, efficacy in % is determined. 100% means that all the aphids have been killed; 0% means that none of the aphids have been killed.

SMILES	efficacy (spider mites killed) ([1]; 100 g/ha)	efficacy (dead or moribund) [2]	efficacy (kill in %) [3]	efficacy (kill in %) [4]	efficacy (dead or moribund) [5]	logP [6]	efficacy (beetle larvae killed) ([7]; 100 g/ha)	efficacy (kill in %) [8]	efficacy (caterpillars killed) ([9]; 100 g/ha)	efficacy (kill in %) [10]	efficacy (no fertile eggs laid) [11]	efficacy (no fertile eggs laid) [12]	efficacy (mortality in %) [13]	efficacy (spider mites killed) ([1]; 500 g/ha)	efficacy (aphids killed) [14]	efficacy (beetle larvae killed) ([7]; 500 g/ha)	efficacy (caterpillars killed) ([9]; 500 g/ha)
O=C(NC1CC1)c1cc(-n2cc(-c3c(Cl)cc(C(F)(C(F)(F)F)C(F)(F)F)cc3Cl)nn2)ccc1Cl [I-T48-3]	100%	100%	90%	100%	100%	4.3	100%	100%	100%	100%	100%	90%	–	–	–	–	–
N#CC1(NC(=O)c2cc(-n3cc(-c4c(Cl)cc(C(F)(C(F)(F)F)C(F)(F)F)cc4Cl)nn3)ccc2Cl)CC1 [I-T48-4]	100%	100%	–	100%	100%	4.2	100%	100%	100%	100%	100%	–	90-100%	–	–	–	–
Cc1cc(C(F)(C(F)(F)F)C(F)(F)F)cc(C)c1-c1cn(-c2ccc(Cl)c(C(=O)NCC(F)(F)F)c2)nn1 [I-T48-5]	–	–	–	100%	–	4.5	100%	100%	100%	100%	100%	–	–	–	–	–	–
Cc1cc(C(F)(C(F)(F)F)C(F)(F)F)cc(C)c1-c1cn(-c2ccc(Cl)c(C(=O)NC3CSC3)c2)nn1 [I-T48-6]	100%	–	–	100%	–	4.5	100%	100%	100%	100%	100%	–	–	–	–	–	–
Cc1cc(C(F)(C(F)(F)F)C(F)(F)F)cc(C)c1-c1cn(-c2cnc(Cl)c(C(=O)NC3CC3)c2)nn1 [I-T48-7]	–	–	100%	100%	100%	–	–	100%	–	100%	100%	100%	–	100%	100%	100%	100%
Cc1cc(C(F)(C(F)(F)F)C(F)(F)F)cc(C)c1-c1cn(-c2cnc(Cl)c(C(=O)NC3(C#N)CC3)c2)nn1 [I-T48-8]	–	–	100%	100%	–	–	–	–	–	–	100%	100%	–	100%	100%	100%	100%
